“Also recorded” adds a separate entry of the source.
Experiments:
[1] = system: HIST1H2BJ-GFP locus; test: CRISPR-Cas9 gene editing efficiency by flow cytometry (GFP- cells); assay type: cell-based, human
Method: SpyCas9 RNP preparation: RNPs were produced by complexing a two-component gRNA to SpyCas9. In brief, tracr-RNA and crRNA were ordered from IDT, suspended in nuclease-free duplex buffer at 100 μM, and stored in single-use aliquots at −20° C. tracrRNA and crRNA were thawed, and 0.0625 μL of each component was mixed 1:1 by volume and annealed by incubation at room temperature for 5 minutes to form a 50 μM sgRNA solution for each well of a 96 well plate. Recombinant sNLS-SpCas9-sNLS Cas9 (Aldevron, 10 mg/mL) was added to the complexed gRNA at a 1:1 molar ratio (1000 ng/well, Total 0.1 μL) and incubated for 5 minutes at room temperature to form RNP.
RNP delivery: iPSCs were singularized using Accutase™ and counted using a Countess® II FL Automated Cell Counter (Thermo Fisher Scientific) with 0.4% Trypan Blue viability stain (Thermo Fisher Scientific). iPSCs were then seeded at 15,000 cells/well on 96 well glass bottom plates (Cellvis) in mTeSR1 (WiCell) and 10 μM ROCK inhibitor (Y27632, Selleckchem), two days before lipofection or electroporation. On the following day, iPSCs were treated with TSA (0-200 ng/mL) for 16-24 hours. iPSC lipofections were performed using 0.5 μL Lipofectamine Stem Cell Reagent/well (1000 ng Cas9/well and sgRNA at 1:1 molar ratio). Cells remained undisturbed for 48 hours and were then passaged 1:4 using ReLeSR™ solution followed by daily mTeSR1 media changes for 4 additional days before downstream analysis.
Flow cytometry and fluorescence activated cell sorting: Flow cytometry was performed on singularized iPSCs using Attune™ Nxt flow cytometer (ThermoFisher Scientific) and analyzed using the FlowJo Software. Ghost Dye™ Red 780, ATTO 550, and GFP fluorescence were detected using 780/60, 585/16, and 530/30 filters in […] positions, respectively. Gates were established by running singularized untransfected iPSCs. The percentage of viable cells was calculated as the ratio of Ghost Dye™ Red 780-cells to the total number of single cells. Transfection efficiency was calculated as the percentage of ATTO 550+ cells to the total number of viable cells on day 2 post-transfection. Gene editing efficiency was calculated as the percentage of GFP-cells to the total number of viable cells on day 6 post-transfection. For the sorting experiments, iPSCs were singularized 6 days post-transfection using Accutase™, washed with PBS+20 μM ROCK inhibitor, centrifuged at 300 g for 5 minutes. Ghost Dye™ Red 780 viability dye (Tonbo Biosciences) was then added at 1:1000 concentration for 20 minutes at room temperature. Cells were washed again with PBS+20 μM ROCK inhibitor, spun down at 300 g for 5 minutes, and resuspended in 300 μL of FACS buffer (PBS+2% BSA+20 μM ROCK inhibitor). GFP-cells were then sorted into tubes containing mTeSR1+20 μM ROCK inhibitor, and seeded onto Matrigel®-coated 6 well polystyrene plates at 100 cells/well to obtain single-cell iPSC clones.
A simple, yet robust, workflow has been developed to introduce mutations in iPSCs without extensive use of deep sequencing (FIG. 1A). A mono-allelic mEGFP tagged HIST1H2BJWTC-11 human iPSC line (tag at C-terminus) was used as it provides two-fold advantages. […] Second, these iPSCs enable in situ live imaging of their cell nuclei to monitor chromatin changes during the process of CRISPR-Cas9 gene editing. An Alt-R® CRISPR-Cas9 2-part single guide RNA (sgRNA) system (IDT) was employed, which consists of 1) crRNA sequence to target the mEGFP locus in iPSCs (FIG. 1B), and 2) ATTO™ 550 fluorescent dye labelled tracrRNA that binds to Cas9. A range of TSA concentrations (0-200 ng/mL) were tested on iPSCs to determine the effect of TSA on cell viability. […] TSA concentrations of 0, 3.13, 6.25, and 12.5 ng/mL for further studies. Next, a range of TSA treatment durations (0-24 hours) were assessed and two methods for delivery for the Cas9 RNP complex (lipofection and electroporation) were also assessed to determine the optimal conditions for gene editing. […]

[2] = system: edited iPSC clones; test: G-banded karyotyping of edited iPSC clones; assay type: cell-based, human; conditions: 6.25 ng/mL TSA
Method: Karyotyping: Cells cultured for at least 5 passages were grown to 60-80% confluence and shipped for karyotype analysis to WiCell Research Institute, Madison, Wis. G-banded karyotyping was performed using standard cytogenetic protocols. Metaphase preparations were digitally captured with Applied Spectral Imaging software and hardware. For each cell line, 20 GTL-banded metaphases were counted, of which a minimum of 5 were analyzed and karyotyped. Results were reported in accordance with guidelines established by the International System for Cytogenetic Nomenclature 2016.

CC(/C=C/C(=O)NO)=C\[C@@H](C)C(=O)c1ccc(N(C)C)cc1 [TSA, Trichostatin A]
Gene editing efficiency (% GFP- cells/viable cells) upon TSA treatment ([1]; TSA 0-12.5 ng/mL, FIG. 1D): increases | Increase in gene editing efficiency (% GFP- cells/viable cells) ([1]; TSA 6.25 ng/mL, day 6 after Cas9 RNP delivery): 2-3 fold | Gene editing efficiency on additional increase of TSA concentration ([1]; TSA 12.5 ng/mL vs 6.25 ng/mL): did not increase the editing efficiency further | Increase in gene editing efficiency of iPSCs ([1]; chromatin decondensation via TSA, summary statement): 2-3 fold | Relation between gene editing efficiency (% GFP- cells/viable cells) and dose of TSA ([1]; concentrations up to 6.25 ng/mL, day 6): positive correlation | TSA treatment duration yielding the highest gene editing efficiencies ([1]; durations 0-24 hours assessed, data not shown): 20 h | Karyotype abnormality in one clone (#5) ([2]; FIG. 4E, known recurrent duplication in pluripotent stem cell cultures): interstitial duplication in the long (q) arm of chromosome 20 in five of the twenty cells examined | Karyotype of edited iPSC clones ([2]; five clones, HIST1H2BJ-GFP locus): no genomic abnormalities in four of the five clones; also recorded: normal karyotype

— patent US20230272357A1, “METHODS OF GENOME EDITING INCLUDING CONTROLLED OPENING OF CHROMATIN” (Wisconsin Alumni Research Foundation, priority 2021, published 2023)
